Measurements: US20100222334A1 (priority 2007, published 2010)

Key:
[1] = human, in vivo
Protocol: In order to determine the relative bioavailability, an open-label, single dose, two-period, crossover study is conducted in 24 healthy subjects.

[2] = Bioavailability of new 80 mg valsartan pediatric tablet relative to 80 mg commercial tablet, single-dose crossover; settings: in the same study
Protocol: The study is conducted in 24 healthy subjects using an open-label, single-dose, two period, randomized, crossover study design.

[3] = administered as immediate release tablet formulation (Diovan); cited from earlier work

## CCCCC(=O)N(Cc1ccc(-c2ccccc2-c2nnn[nH]2)cc1)[C@H](C(=O)O)C(C)C [Valsartan, (S)—N-(1-carboxy-2-methylprop-1-yl)-N-pentanoyl-N-[2′-(1H-tetrazol-5-yl)biphenyl-4-ylmethyl]amine]
[1]
  intersubject variability (CV %) for the Cmax and AUCτ: 24-40%
[2]
  variability of valsartan PK: 30-50%
[3]
  bioavailability: around 30%
